Experiments:
Test in all cases: β-arrestin based GPCR screen (PathHunter / GPCRmax), antagonist mode
[1] = target: 168 GPCRs (Homo sapiens, UniProt P32239); settings: CCKBR, Antagonist
[2] = target: 168 GPCRs (Homo sapiens, UniProt P43115)
[3] = target: 168 GPCRs (Homo sapiens, UniProt Q9UBY5)
[4] = target: 168 GPCRs (Homo sapiens, UniProt P30988); settings: Antagonist
[5] = target: 168 GPCRs (Homo sapiens, UniProt P43116)
[6] = target: 168 GPCRs (Homo sapiens, UniProt P35372)
[7] = target: 168 GPCRs (Homo sapiens, UniProt P23945); settings: FSHR
[8] = target: 168 GPCRs (Homo sapiens, UniProt P47211)
[9] = target: 168 GPCRs (Homo sapiens, UniProt P18089); settings: ADRA2B, Antagonist
[10] = target: 168 GPCRs (Homo sapiens, UniProt P49019); settings: GPR109B
[11] = target: 168 GPCRs (Homo sapiens, UniProt P49682)
[12] = target: 168 GPCRs (Homo sapiens, UniProt Q01726); settings: MC1R
[13] = target: 168 GPCRs (Homo sapiens, UniProt P08588); settings: ADRB1, Antagonist
[14] = target: 168 GPCRs (Homo sapiens, UniProt O95838); settings: GLP2R
[15] = target: 168 GPCRs (Homo sapiens, UniProt P30874)
[16] = target: 168 GPCRs (Homo sapiens, UniProt P30872)
[17] = target: 168 GPCRs (Homo sapiens, UniProt P30411); settings: BDKRB2, Antagonist
[18] = target: 168 GPCRs (Homo sapiens, UniProt O43603)
[19] = target: 168 GPCRs (Homo sapiens, UniProt P37288); settings: AVPR1A, Antagonist
[20] = target: T1, 168 GPCRs (Homo sapiens, UniProt Q96RI0)
T1 sequence (Q96RI0 18-385): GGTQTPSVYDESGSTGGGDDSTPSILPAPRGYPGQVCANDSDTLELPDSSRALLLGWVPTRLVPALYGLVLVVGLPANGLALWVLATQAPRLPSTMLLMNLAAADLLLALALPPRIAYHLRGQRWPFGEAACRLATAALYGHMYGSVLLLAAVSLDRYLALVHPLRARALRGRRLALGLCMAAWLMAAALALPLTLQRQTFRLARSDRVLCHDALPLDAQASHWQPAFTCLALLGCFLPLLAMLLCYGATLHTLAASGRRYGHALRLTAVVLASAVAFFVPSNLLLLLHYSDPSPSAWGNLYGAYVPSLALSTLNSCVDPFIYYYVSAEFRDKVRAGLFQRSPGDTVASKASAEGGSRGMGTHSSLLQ

168 GPCRs (Homo sapiens, UniProt P30988), sequence (P30988 25-474): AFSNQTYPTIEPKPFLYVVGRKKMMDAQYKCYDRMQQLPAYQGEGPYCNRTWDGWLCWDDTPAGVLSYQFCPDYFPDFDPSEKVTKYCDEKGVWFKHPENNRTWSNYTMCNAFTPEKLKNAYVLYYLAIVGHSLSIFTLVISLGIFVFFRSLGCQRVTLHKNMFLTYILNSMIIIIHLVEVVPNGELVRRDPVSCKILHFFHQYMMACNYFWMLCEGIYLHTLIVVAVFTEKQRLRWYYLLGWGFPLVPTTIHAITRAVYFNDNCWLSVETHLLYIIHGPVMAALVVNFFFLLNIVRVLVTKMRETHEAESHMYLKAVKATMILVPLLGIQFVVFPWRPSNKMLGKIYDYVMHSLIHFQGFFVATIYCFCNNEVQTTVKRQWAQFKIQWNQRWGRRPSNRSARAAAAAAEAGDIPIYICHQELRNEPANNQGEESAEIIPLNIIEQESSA
168 GPCRs (Homo sapiens, UniProt P49682), sequence (P49682 whole entry): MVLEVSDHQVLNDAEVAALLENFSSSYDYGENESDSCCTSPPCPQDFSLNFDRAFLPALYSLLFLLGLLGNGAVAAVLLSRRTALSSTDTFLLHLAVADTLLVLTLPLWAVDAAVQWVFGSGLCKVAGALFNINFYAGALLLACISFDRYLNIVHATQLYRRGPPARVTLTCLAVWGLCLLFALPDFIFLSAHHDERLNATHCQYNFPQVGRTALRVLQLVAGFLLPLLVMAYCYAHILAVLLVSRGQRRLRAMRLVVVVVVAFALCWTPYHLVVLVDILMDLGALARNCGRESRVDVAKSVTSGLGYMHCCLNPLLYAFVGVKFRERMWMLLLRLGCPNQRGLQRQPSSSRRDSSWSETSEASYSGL
168 GPCRs (Homo sapiens, UniProt P37288), sequence (P37288 whole entry): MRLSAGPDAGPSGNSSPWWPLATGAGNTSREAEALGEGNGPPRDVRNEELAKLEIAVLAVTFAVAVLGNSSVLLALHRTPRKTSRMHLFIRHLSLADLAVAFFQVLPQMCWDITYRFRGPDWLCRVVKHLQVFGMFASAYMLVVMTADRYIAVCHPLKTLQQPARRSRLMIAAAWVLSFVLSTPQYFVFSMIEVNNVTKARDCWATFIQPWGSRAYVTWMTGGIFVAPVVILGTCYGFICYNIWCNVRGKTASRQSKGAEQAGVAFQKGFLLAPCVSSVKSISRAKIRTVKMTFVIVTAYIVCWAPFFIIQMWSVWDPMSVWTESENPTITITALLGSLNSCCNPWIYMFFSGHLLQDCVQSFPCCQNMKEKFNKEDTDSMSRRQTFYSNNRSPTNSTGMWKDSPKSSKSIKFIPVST
168 GPCRs (Homo sapiens, UniProt Q9UBY5), sequence (Q9UBY5 whole entry): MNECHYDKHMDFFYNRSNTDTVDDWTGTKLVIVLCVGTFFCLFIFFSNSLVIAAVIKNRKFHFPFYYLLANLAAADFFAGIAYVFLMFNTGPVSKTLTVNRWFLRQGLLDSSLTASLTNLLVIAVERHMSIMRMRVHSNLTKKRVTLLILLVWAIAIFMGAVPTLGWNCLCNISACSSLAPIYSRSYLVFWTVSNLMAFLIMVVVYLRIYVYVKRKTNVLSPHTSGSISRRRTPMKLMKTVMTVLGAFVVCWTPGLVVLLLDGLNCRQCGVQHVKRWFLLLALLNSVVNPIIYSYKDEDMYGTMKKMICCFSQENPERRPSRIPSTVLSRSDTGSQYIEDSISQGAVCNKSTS
168 GPCRs (Homo sapiens, UniProt P23945), sequence (P23945 18-695): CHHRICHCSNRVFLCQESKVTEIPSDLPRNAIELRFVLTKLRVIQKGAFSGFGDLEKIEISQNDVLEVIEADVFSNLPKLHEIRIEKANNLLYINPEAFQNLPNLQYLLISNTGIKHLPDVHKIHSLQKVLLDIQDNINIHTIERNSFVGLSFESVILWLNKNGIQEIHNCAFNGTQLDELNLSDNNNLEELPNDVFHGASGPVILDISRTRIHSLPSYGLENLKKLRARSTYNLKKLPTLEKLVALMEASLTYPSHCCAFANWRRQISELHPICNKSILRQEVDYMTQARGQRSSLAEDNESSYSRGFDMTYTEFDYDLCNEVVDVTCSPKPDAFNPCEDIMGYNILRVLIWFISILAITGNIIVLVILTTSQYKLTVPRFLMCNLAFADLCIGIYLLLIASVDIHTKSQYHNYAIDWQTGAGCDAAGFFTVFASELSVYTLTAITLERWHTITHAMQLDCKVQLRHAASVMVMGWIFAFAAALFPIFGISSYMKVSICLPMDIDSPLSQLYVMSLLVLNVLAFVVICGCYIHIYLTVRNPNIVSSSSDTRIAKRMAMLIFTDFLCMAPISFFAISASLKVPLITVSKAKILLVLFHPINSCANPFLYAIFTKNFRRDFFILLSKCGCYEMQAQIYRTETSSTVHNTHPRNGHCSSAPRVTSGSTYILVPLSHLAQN
168 GPCRs (Homo sapiens, UniProt P30411), sequence (P30411 whole entry): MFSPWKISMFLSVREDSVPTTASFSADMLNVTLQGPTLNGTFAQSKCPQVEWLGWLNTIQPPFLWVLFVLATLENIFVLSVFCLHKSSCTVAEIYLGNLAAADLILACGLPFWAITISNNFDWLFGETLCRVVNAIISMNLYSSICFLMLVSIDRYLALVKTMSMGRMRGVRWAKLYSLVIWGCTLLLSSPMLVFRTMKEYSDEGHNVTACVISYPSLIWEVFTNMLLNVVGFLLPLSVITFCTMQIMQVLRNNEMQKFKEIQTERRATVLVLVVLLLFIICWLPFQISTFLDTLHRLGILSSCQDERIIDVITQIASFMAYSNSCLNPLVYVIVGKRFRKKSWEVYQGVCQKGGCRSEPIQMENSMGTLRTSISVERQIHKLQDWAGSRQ
168 GPCRs (Homo sapiens, UniProt O43603), sequence (O43603 whole entry): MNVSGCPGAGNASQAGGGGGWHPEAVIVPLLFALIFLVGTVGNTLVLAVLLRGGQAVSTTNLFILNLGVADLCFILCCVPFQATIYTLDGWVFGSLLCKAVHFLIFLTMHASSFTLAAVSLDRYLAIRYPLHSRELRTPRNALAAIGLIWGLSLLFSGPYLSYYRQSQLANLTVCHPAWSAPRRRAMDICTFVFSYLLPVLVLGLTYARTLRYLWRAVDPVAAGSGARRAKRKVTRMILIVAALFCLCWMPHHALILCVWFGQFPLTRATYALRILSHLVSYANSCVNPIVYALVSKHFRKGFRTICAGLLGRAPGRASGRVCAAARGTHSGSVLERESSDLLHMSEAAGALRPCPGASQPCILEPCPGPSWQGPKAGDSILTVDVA
168 GPCRs (Homo sapiens, UniProt P35372), sequence (P35372 whole entry): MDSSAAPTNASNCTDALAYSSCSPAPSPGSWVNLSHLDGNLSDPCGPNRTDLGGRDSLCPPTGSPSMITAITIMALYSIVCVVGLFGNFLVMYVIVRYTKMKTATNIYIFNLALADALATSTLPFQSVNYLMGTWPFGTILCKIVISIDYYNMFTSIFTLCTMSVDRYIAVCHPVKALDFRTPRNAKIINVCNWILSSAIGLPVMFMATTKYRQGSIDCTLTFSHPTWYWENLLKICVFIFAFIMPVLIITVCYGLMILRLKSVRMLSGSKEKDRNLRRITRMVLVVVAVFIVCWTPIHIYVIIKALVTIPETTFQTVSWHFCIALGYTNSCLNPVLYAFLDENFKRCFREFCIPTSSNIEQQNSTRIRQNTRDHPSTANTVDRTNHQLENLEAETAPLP
168 GPCRs (Homo sapiens, UniProt P18089), sequence (P18089 whole entry): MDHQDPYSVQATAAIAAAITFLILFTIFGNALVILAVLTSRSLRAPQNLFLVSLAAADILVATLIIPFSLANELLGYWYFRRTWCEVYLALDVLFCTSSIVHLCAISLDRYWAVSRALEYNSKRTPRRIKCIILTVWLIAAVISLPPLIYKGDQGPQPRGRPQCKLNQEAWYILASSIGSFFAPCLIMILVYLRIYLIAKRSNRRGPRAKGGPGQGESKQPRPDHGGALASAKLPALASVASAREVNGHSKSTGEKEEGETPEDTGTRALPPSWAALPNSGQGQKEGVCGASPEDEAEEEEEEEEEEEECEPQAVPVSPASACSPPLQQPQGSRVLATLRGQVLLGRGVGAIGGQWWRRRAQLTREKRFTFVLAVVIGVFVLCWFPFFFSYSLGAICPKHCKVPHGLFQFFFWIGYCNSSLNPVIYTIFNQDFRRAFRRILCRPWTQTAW
168 GPCRs (Homo sapiens, UniProt P30872), sequence (P30872 whole entry): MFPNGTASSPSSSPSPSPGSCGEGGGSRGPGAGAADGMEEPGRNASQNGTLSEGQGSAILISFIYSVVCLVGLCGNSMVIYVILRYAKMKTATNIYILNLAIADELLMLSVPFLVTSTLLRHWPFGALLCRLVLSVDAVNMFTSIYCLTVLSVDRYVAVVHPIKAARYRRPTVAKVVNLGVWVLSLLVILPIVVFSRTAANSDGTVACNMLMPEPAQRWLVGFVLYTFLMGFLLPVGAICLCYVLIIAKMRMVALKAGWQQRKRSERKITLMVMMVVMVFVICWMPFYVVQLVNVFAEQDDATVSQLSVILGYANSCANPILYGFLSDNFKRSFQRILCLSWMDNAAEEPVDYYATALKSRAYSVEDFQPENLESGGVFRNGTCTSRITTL
168 GPCRs (Homo sapiens, UniProt P08588), sequence (P08588 whole entry): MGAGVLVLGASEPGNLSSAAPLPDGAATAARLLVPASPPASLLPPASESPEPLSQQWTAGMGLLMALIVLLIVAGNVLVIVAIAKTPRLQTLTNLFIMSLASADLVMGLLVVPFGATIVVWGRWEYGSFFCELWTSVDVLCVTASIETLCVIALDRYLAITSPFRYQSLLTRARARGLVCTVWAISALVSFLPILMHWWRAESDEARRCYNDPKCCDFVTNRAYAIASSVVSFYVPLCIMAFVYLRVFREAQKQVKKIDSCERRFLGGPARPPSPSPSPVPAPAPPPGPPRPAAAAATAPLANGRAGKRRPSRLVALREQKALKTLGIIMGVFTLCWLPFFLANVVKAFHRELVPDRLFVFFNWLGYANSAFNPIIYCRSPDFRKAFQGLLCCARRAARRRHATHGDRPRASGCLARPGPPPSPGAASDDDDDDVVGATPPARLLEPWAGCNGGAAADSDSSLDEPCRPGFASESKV

**Q.** CNC(C)C(=O)c1ccc2c(c1)OCO2 (centres unmarked) [methylone, 3,4-methylenedioxy-N-methylcathinone] was tested. Which activity at 1 µM ([1]; 1 uM) did it give?
**A.** The activity at 1 µM was -1.1%.

**Q.** And the activity at 10 µM ([1]; 10 uM)?
**A.** Its activity at 10 µM is -2.4%.

**Q.** And the activity at 10 µM ([2]; PTGER3, Antagonist mode, 10 uM)?
**A.** The activity at 10 µM was 5.7%.

**Q.** And the activity at 1 µM ([2]; PTGER3, Antagonist, 1 uM)?
**A.** Its activity at 1 µM is -6.2%.

**Q.** What about the activity at 10 µM ([3]; EDG7, Antagonist mode, 10 uM) of the same molecule?
**A.** The activity at 10 µM was 17.9%.

**Q.** And the activity at 1 µM ([3]; EDG7, Antagonist, 1 uM)?
**A.** The activity at 1 µM was 19.5%.

**Q.** And the activity at 1 µM ([4]; CALCR-RAMP2)?
**A.** The activity at 1 µM was -10.6%.

**Q.** And the activity at 10 µM ([4]; CALCR-RAMP2)?
**A.** The activity at 10 µM was -19.6%.

**Q.** What about the activity at 1 µM ([4]; CALCR-RAMP3) of the same molecule?
**A.** Its activity at 1 µM is -8.9%.

**Q.** What about the activity at 10 µM ([4]; CALCR-RAMP3) of the same molecule?
**A.** The activity at 10 µM was 3.3%.

**Q.** And the activity at 1 µM ([4]; CALCR)?
**A.** Its activity at 1 µM is 5.4%.

**Q.** And the activity at 10 µM ([4]; CALCR)?
**A.** Its activity at 10 µM is -4.4%.

**Q.** And the activity at 10 µM ([5]; PTGER2, Antagonist mode, 10 uM)?
**A.** Its activity at 10 µM is -4.4%.

**Q.** What about the activity at 1 µM ([5]; PTGER2, Antagonist, 1 uM) of the same molecule?
**A.** Its activity at 1 µM is 12.7%.

**Q.** And the activity at 10 µM ([6]; OPRM1, OPRM1, Antagonist mode, 10 uM)?
**A.** The activity at 10 µM was -18%.

**Q.** And the activity at 1 µM ([6]; OPRM1, OPRM1, Antagonist, 1 uM)?
**A.** Its activity at 1 µM is -8%.

**Q.** What about the activity at 10 µM ([7]; Antagonist mode, 10 uM) of the same molecule?
**A.** The activity at 10 µM was -8.4%.

**Q.** And the activity at 1 µM ([7]; Antagonist, 1 uM)?
**A.** The activity at 1 µM was -11.8%.

**Q.** What about the activity at 10 µM ([8]; GALR1, Antagonist mode, 10 uM) of the same molecule?
**A.** The activity at 10 µM was 6.8%.

**Q.** And the activity at 1 µM ([8]; GALR1, Antagonist, 1 uM)?
**A.** Its activity at 1 µM is 7.1%.

**Q.** What about the activity at 1 µM ([9]; 1 uM) of the same molecule?
**A.** The activity at 1 µM was 8.5%.

**Q.** And the activity at 10 µM ([9]; 10 uM)?
**A.** Its activity at 10 µM is 6.3%.

**Q.** And the activity at 10 µM ([10]; Antagonist mode, 10 uM)?
**A.** The activity at 10 µM was -20.2%.

**Q.** What about the activity at 1 µM ([10]; Antagonist, 1 uM) of the same molecule?
**A.** Its activity at 1 µM is -16.5%.

**Q.** What about the activity at 10 µM ([11]; CXCR3, Antagonist mode, 10 uM) of the same molecule?
**A.** Its activity at 10 µM is -3.9%.

**Q.** And the activity at 1 µM ([11]; CXCR3, Antagonist, 1 uM)?
**A.** Its activity at 1 µM is 4.5%.

**Q.** What about the activity at 10 µM ([12]; Antagonist mode, 10 uM) of the same molecule?
**A.** Its activity at 10 µM is 15.9%.

**Q.** What about the activity at 1 µM ([12]; Antagonist, 1 uM) of the same molecule?
**A.** Its activity at 1 µM is 20.1%.

**Q.** And the activity at 1 µM ([13]; 1 uM)?
**A.** Its activity at 1 µM is -0.8%.

**Q.** And the activity at 10 µM ([13]; 10 uM)?
**A.** The activity at 10 µM was -1.2%.

**Q.** And the activity at 10 µM ([14]; Antagonist mode, 10 uM)?
**A.** The activity at 10 µM was 5.4%.

**Q.** And the activity at 1 µM ([14]; Antagonist, 1 uM)?
**A.** Its activity at 1 µM is 5.4%.

**Q.** What about the activity at 10 µM ([15]; SSTR2, Antagonist mode, 10 uM) of the same molecule?
**A.** Its activity at 10 µM is -4.2%.

**Q.** What about the activity at 1 µM ([15]; SSTR2, Antagonist, 1 uM) of the same molecule?
**A.** The activity at 1 µM was -0.4%.

**Q.** What about the activity at 10 µM ([16]; SSTR1, Antagonist mode, 10 uM) of the same molecule?
**A.** Its activity at 10 µM is 20.9%.

**Q.** What about the activity at 1 µM ([16]; SSTR1, Antagonist, 1 uM) of the same molecule?
**A.** The activity at 1 µM was 32.4%.

**Q.** What about the activity at 1 µM ([17]; 1 uM) of the same molecule?
**A.** The activity at 1 µM was 7.3%.

**Q.** And the activity at 10 µM ([17]; 10 uM)?
**A.** Its activity at 10 µM is -2.6%.

**Q.** And the activity at 10 µM ([18]; GALR2, Antagonist mode, 10 uM)?
**A.** Its activity at 10 µM is 1.5%.

**Q.** And the activity at 1 µM ([18]; GALR2, Antagonist, 1 uM)?
**A.** Its activity at 1 µM is 7%.

**Q.** What about the activity at 1 µM ([19]; 1 uM) of the same molecule?
**A.** Its activity at 1 µM is -3%.

**Q.** What about the activity at 10 µM ([19]; 10 uM) of the same molecule?
**A.** The activity at 10 µM was 2.8%.

**Q.** And the activity at 10 µM ([20]; F2RL3, Antagonist mode, 10 uM)?
**A.** The activity at 10 µM was -6.9%.

**Q.** And the activity at 1 µM ([20]; F2RL3, Antagonist, 1 uM)?
**A.** The activity at 1 µM was -11.3%.

From patent publication US12343326B2, “Psychoactive medicines and their use for treating psychiatric and neurological conditions and disorders” (Transcend Therapeutics, Inc., priority 2021, dated 2025)
